Assays:
cFos = experiment: qRT-PCR analysis of cFos expression in cultured hippocampal neurons
VEGFC = experiment: qRT-PCR analysis of VEGFC expression in cultured hippocampal neurons
VEGFD = experiment: qRT-PCR analysis of VEGFD expression in cultured hippocampal neurons; assay type: cell-based, mouse
Procedure: RNA extraction and cDNA synthesis. Total RNA was isolated at DIV10 to DIV13 from hippocampal primary neuron cultures or isolated brain tissues with Rneasy Mini Kit (Qiagen, Hilden, Germany) including an optional Dnase I treatment at room temperature for 15 min according to manufacturer's instructions (Qiagen). 1.2 µg of extracted RNA was reverse transcribed into first strand cDNA using High Capacity cDNA Reverse Transcription kit (Applied Biosystems, Foster City, CA).
Real time quantitative PCR. Quantitative reverse transcriptase PCR (qRT-PCR) was done on an ABI7300 thermal cycler using Universal qRT-PCR master mix with TaqMan Gene Expression Assays for the indicated genes (Applied Biosystems). The following TaqMan Gene Expression Assays were used in this study: Gusb (Mm00446953_m1), cFos (Mm00487425_m1), VEGFD (Mm00438965_m1), VEGFC (Mm01202432_m1), VEGF (Mm01281449_m1), VEGFR3 (Mm01292618_m1), beta-actin (Mm00607939_s1), beta-2 microglobulin (Mm00437762_m1), CBP (Mm01342435_m1), p38 MAPK alpha (Mm00442497_m1), p38 MAPK beta (Mm00440955_m1). Expression of target genes was normalized against the expression of Gusb as endogenous control gene. Data were derived from at least 5 independent experiments.

hippocampal neurons = experiment: Morphometric analyses (total dendritic length, Sholl analysis, spines) of cultured hippocampal neurons; assay type: cell-based, C57BL/6 mice
Procedure: Hippocampal cultures and transfection. Hippocampal neurons from newborn C57BL/6 mice were cultured as known in the art. Experiments were done after a culturing period of 10 to 14 days in vitro (DIV). DNA transfection was done on DIV8 using Lipofectamine 2000 (Invitrogen, San Diego, CA). For the studies on dendrite morphology, neurons were analyzed 4-5 days after transfection.
Morphometric analyses. For 3D Sholl Analysis, total dendritic length and spine morphology were calculated using Object-Image freeware software with a specific set of macros (written by Dr. E. Ruthazer, McGill University, Quebec). Briefly, a z-Stack acquisition was imported, calibrated in Object-Image and manually traced. Total dendritic length was then computed. For Sholl analysis, the shell interval was set at 5 µm. All analyses were performed blind. In all in vitro experiments, for each condition, a minimum of 12 neurons from three independent preparations was analyzed. For the Golgi staining quantifications of 20 neurons for each condition from 4 different injected animals per viral construct were traced and analyzed. MEA recordings. […]
Immunocytochemistry. […] For the morphometric analyses, fluorescence images were acquired using a confocal laser-scanning microscope TCS SP2 (Leica, Mannheim, Germany) equipped with an inverted fluorescence microscope DM IRE2 (Leica) and Leica confocal scan software. […]

CN1CCc2cc3c(cc2[C@H]1[C@@H]1OC(=O)c2c1ccc1c2OCO1)OCO3 [Bicuculline]
cFos mRNA (cFos): robust induction of cFos mRNA | VEGFC mRNA levels (VEGFC): did not alter VEGFC or VEGFD mRNA levels | VEGFD mRNA levels (VEGFD): did not alter VEGFC or VEGFD mRNA levels

C[C@]12N[C@H](Cc3ccccc31)c1ccccc12 [MK801]
expression of VEGFD mRNA (VEGFD; 10 µM MK801, 10 µM nifedipine or both, DIV5 to DIV10): significantly reduced the expression of VEGFD mRNA

C[S+]([O-])c1ccc(-c2nc(-c3ccncc3)c(-c3ccc(F)cc3)[nH]2)cc1 (stereo not drawn) [SB203580]
effect on rVEGFD-induced rescue of dendrite length and complexity (hippocampal neurons; neurons expressing CaMBP4 (and CaMKIVK75E), treated 3 days with rVEGFD): severely compromised the ability of rVEGFD to rescue the impairment of dendrite length and complexity | Sholl analysis (hippocampal neurons; neurons expressing hrGFP, CaMBP4 or CaMKIVK75E, treated with SB203580 without rVEGFD): no difference compared to the respective untreated controls

Reference: patent EP2529745A1, “VEGF-D/VEGFR mediated regulation of dendrites” (Universität Heidelberg, priority 2011, dated 2012)
